Results reported in patent publication US11639506B2, “Recombinant yeast having increased tolerance to ionic liquids and methods of use” (Wisconsin Alumni Research Foundation, priority 2015, dated 2023).
Where “and” joins values, the source holds several entries; their conditions need not be identical. Equal values may be shown once.

What was measured:
Y133 ptk2Δ [1] = assay type: cell-based, S. cerevisiae
Text: We deleted PTK2 in our xylose fermenting yeast GLBRCY133 (Parreiras et al.,2014).

Y133 ptk2Δ [2] = assay type: cell-based, S. cerevisiae; settings: relative to Y133, p<0.01
Procedure: Compounds, initial screening, and IC50 determination: Compounds tested were purchased from Sigma-Aldrich. […] Plates were read on a TECAN M1000 over a 48 hour growth period. […] When presented, IC50 values for growth inhibition were calculated from triplicate 8 point dose curves and SigmaPlot 12.0. When presented, error bars are mean±standard error (S.E.) of at least 3 replicates.

[3] = test system: S. cerevisiae deletion mutants; assay: Chemical genomic profiling of pooled deletion mutants; assay type: cell-based; settings: listed as EMIM-CI
[4] = test system: PTK2 deletion mutant in a lab strain background; assay: Growth inhibition IC50, PTK2 deletion mutant in lab strain; assay type: cell-based, S. cerevisiae; settings: deletion mutant of PTK2 in the lab strain
Procedure: Compounds, initial screening, and IC50 determination: Compounds tested were purchased from Sigma-Aldrich. Cells of S. cerevisiae (MATαpdr1Δ::natMXpdr3Δ::KI.URA3 snq2Δ::KI.LEU2 can1Δ::STE2pr-Sp_his5 lyp1Δhis3Δ1 leu2Δ0 ura3Δ0 met15Δ0), referred to as control strain, were grown in 200 μl cultures at 30° C. in YPD, with a drug or DMSO control. Plates were read on a TECAN M1000 over a 48 hour growth period. The specific growth rate was calculated using GCAT analysis software (available at cat3-pub.glbrc.org on the World Wide Web) (Sato et al., 2013). When presented, IC50 values for growth inhibition were calculated from triplicate 8 point dose curves and SigmaPlot 12.0. When presented, error bars are mean±standard error (S.E.) of at least 3 replicates.

[5] = test system: xylose fermenting yeast GLBRCY133; assay: Growth inhibition IC50, xylose fermenting yeast Y133; assay type: cell-based, S. cerevisiae; settings: Y133 and Y133 ptk2Δ
yeast mitochondria = assay: SYTO 16 staining of active mitochondria (microscopy); assay type: cell-based; settings: SYTO 16 stain
Text: We determined that ionic liquids were more toxic to cells grown on glycerol compared to glucose (FIG. 3A). Using microscopy, we explored the effect of ionic liquids on mitochondria. […] Untreated cells had normal mitochondrial morphology, and at higher doses, mitochondria structures in cells disappeared indicating a loss of functional mitochondria. Finally, we used FACS analysis with the stain 3,3-Dioctadecyloxacarbocyanine perchlorate (“DiO”), which has differential fluorescence depending on mitochondrial membrane potential. In the presence of ionic liquids, we observed a fluorescence shift of DiO, indicating reduced mitochondrial membrane potential (FIGS. 3C-D). Valinomycin was used as a positive control. Hydroxyurea and benomyl were included as negative control agents that causes cell death through a mechanism unrelated to the mitochondria.

[6] = test system: yeast overexpressing PMA1 or PTK2; assay: Tolerance of PMA1 / PTK2 overexpression strains; assay type: cell-based
[7] = test system: S. cerevisiae deletion mutants; assay: Chemical genomic profiling of pooled deletion mutants; assay type: cell-based
Procedure: FIGS. 1A-B depict chemical genomic profiling of ionic liquids. A genome-wide set of deletion mutants were challenged with a specific compound and grown as a pool for several generations.
(§1) Chemical genomic analysis: Chemical genomic analysis of poacic acid was performed as described as described previously (Fung et al., 2013; Parsons et al., 2006). The tested yeast deletion collection had 4000 strains using the genetic background described in Andrusiak (2012). The optimal inhibitory concentration of poacic acid for chemical genomic profiling (70-80% growth versus solvent control in YP-galactose media after 24 hours of growth) was determined using an 8 point dose curve. A concentration of 88 μg/ml inhibited growth within this range. 200 μl cultures of the pooled, deletion collection of S. cerevisiae deletion mutants were grown with 88 μg/ml poacic acid or a DMSO control in triplicate for 48 hours at 30° C. Genomic DNA was extracted using the Epicentre MasterPure™ Yeast DNA purification kit. Mutant-specific molecular barcodes were amplified with specially designed multiplex primers (Smith et al., 2009). The barcodes were sequenced using an Illumina MiSeq. Three replicates of each condition (poacic acid vs. DMSO) were sequenced. One DMSO control was lost due to poor sequencing reads. The barcode counts for each yeast deletion mutant in the presence of poacic acid were normalized against the DMSO control conditions to define sensitivity or resistance of individual strains. To determine a p-value for each top sensitive and resistant mutant, we used the EdgeR package (Robinson et al., 2014, 2010). A Bonferroni-corrected hypergeometric distribution test was used to search for significant enrichment of GO terms among the top 10 sensitive and resistant deletion mutants (Boyle et al., 2004). To understand the pathways that were most affected by poacic acid we developed a protein complex/pathway score based on the summation of the z-scores for each complex/pathway (Pathway z-score). Correlation of the chemical genomic profile of poacic acid with the yeast genetic interaction network to was done as described in Costanzo et al. (2010).

S. cerevisiae = assay: Dose curve for chemical genomic profiling concentration; assay type: cell-based; settings: 88 μg/ml, YP-galactose media, 24 hours
Procedure: as §1, with “To determine a p-value for each top sensitive and resistant mutant, we used the EdgeR package (Robinson et al., 2014, 2010). A Bonferroni-corrected hypergeometric distribution test was used to search for significant enrichment of GO terms among the top 10 sensitive and resistant deletion mutants (Boyle et al., 2004). To understand the pathways that were most affected by poacic acid we developed a protein complex/pathway score based on the summation of the z-scores for each complex/pathway (Pathway z-score). Correlation of the chemical genomic profile of poacic acid with the yeast genetic interaction network to was done as described in Costanzo et al. (2010).” left out

## CCCCn1cc[n+](C)c1.[Cl-] [BMIM-Cl, 1-butyl-3-methylimidazolium chloride]
Y133 ptk2Δ [1]; 1% BMIM-Cl, aerobic and anaerobic conditions
  tolerance and fermentative capacity of PTK2 deletion: greater tolerance and has greater fermentative capacity
Y133 ptk2Δ [2]
  tolerance conferred by deletion of PTK2 in Y133: significantly greater tolerance

## CC(=O)[O-].CCn1cc[n+](C)c1 [EMIM-Ac, 1-ethyl-3-methylimidazolium acetate]
Y133 ptk2Δ [2]
  tolerance conferred by deletion of PTK2 in Y133: significantly greater tolerance

## CCn1cc[n+](C)c1.[Cl-] [EMIM-Cl, 1-ethyl-3-methylimidazolium chloride]
[3]; HMI1 deletion mutant
  Fold Change: 0.1939
[3]; LYS5 deletion mutant
  Fold Change: 0.1821
[3]; MCT1 deletion mutant
  Fold Change: 0.1576
[3]; SHE9 deletion mutant
  Fold Change: 0.2014
[4]
  resistant to concentration: over 5%
[5]
  effects on growth at pH 6.5 versus pH 5.0: much greater
Y133 ptk2Δ [1]; in the presence of 1% EMIM-Cl, versus Y133
  sugar conversion (glucose and xylose) and ethanol production of PTK2 mutant: significantly improved
Yeast mitochondria
  effect on staining of active mitochondria: dose-dependent effect
[6]; PMA1 overexpression, p<0.01
  EMIM-Cl tolerance on increased expression of PMA1: significant decrease
[6]; PTK2 overexpression
  EMIM-Cl tolerance on overexpression of PTK2: reduced EMIM-Cl tolerance, but not significantly
[7]; APM3 deletion mutant
  Fold Change: 0.5222
[7]; ARG2 deletion mutant, listed as EMIM-CI
  Fold Change: 0.1706
[7]; ARX1 deletion mutant
  Fold Change: 1.688
[7]; AVT3 deletion mutant
  Fold Change: 1.575
[7]; AVT5 deletion mutant
  Fold Change: 1.933
[7]; BAP2 deletion mutant
  Fold Change: 1.689
[7]; BNI4 deletion mutant
  Fold Change: 1.665
[7]; BUD8 deletion mutant
  Fold Change: 0.6034
[7]; CAT5 deletion mutant
  Fold Change: 0.4405
[7]; CTF4 deletion mutant
  Fold Change: 2.67
[7]; DAN1 deletion mutant
  Fold Change: 0.5786
[7]; DBF2 deletion mutant
  Fold Change: 1.927
[7]; DBP3 deletion mutant
  Fold Change: 1.709
[7]; DEP1 deletion mutant
  Fold Change: 2.106
[7]; DIA2 deletion mutant
  Fold Change: 2.886
[7]; DOA1 deletion mutant
  Fold Change: 1.661
[7]; DPB3 deletion mutant
  Fold Change: 1.946
[7]; ERF2 deletion mutant
  Fold Change: 1.477
[7]; GAL1 deletion mutant
  Fold Change: 0.1962
[7]; GAL1 deletion mutant, listed as EMIM-CI
  Fold Change: 0.1962
[7]; GRX2 deletion mutant
  Fold Change: 0.3394
[7]; HIR2 deletion mutant
  Fold Change: 0.4587
[7]; HMI1 deletion mutant
  Fold Change: 0.1939
[7]; IRA2 deletion mutant
  Fold Change: 0.4076
[7]; IST3 deletion mutant
  Fold Change: 1.899
[7]; LIA1 deletion mutant
  Fold Change: 1.621
[7]; LYS2 deletion mutant
  Fold Change: 0.4622
[7]; LYS5 deletion mutant
  Fold Change: 0.1821
[7]; LYS14 deletion mutant
  Fold Change: 0.3984
[7]; MCT1 deletion mutant
  Fold Change: 0.1576
[7]; MEI4 deletion mutant
  Fold Change: 1.592
[7]; MF(ALPHA)2 deletion mutant
  Fold Change: 0.6154
[7]; NMD2 deletion mutant
  Fold Change: 1.614
[7]; OLA1 deletion mutant
  Fold Change: 1.645
[7]; PEX32 deletion mutant
  Fold Change: 2.103
[7]; PMT1 deletion mutant
  Fold Change: 1.712
[7]; PPM1 deletion mutant
  Fold Change: 0.3444
[7]; PTK2 deletion mutant
  Fold Change: 12
[7]; PUF4 deletion mutant
  Fold Change: 0.1863
[7]; PUF4 deletion mutant, listed as EMIM-CI
  Fold Change: 0.1863
[7]; PUF6 deletion mutant
  Fold Change: 1.748
[7]; QCR2 deletion mutant, listed as EMIM-CI
  Fold Change: 0.195
[7]; RCR1 deletion mutant
  Fold Change: 0.4508
[7]; REI1 deletion mutant
  Fold Change: 2.168
[7]; RHO2 deletion mutant
  Fold Change: 1.785
[7]; RIM1 deletion mutant, listed as EMIM-CI
  Fold Change: 0.1974
[7]; RNP1 deletion mutant
  Fold Change: 1.495
[7]; ROM2 deletion mutant
  Fold Change: 2.198
[7]; RPL11B deletion mutant
  Fold Change: 1.725
[7]; RPL19A deletion mutant
  Fold Change: 1.875
[7]; RPL19B deletion mutant
  Fold Change: 1.56
[7]; RPL24B deletion mutant
  Fold Change: 2.086
[7]; RPS10A deletion mutant
  Fold Change: 2.351
[7]; RPS18B deletion mutant
  Fold Change: 1.743
[7]; RPS28B deletion mutant
  Fold Change: 2.088
[7]; RRI1 deletion mutant
  Fold Change: 0.6151
[7]; SAP155 deletion mutant
  Fold Change: 1.704
[7]; SAP185 deletion mutant
  Fold Change: 0.649
[7]; SAY1 deletion mutant
  Fold Change: 1.592
[7]; SHE9 deletion mutant
  Fold Change: 0.2014
[7]; SIN3 deletion mutant
  Fold Change: 2.02
[7]; SKY1 deletion mutant
  Fold Change: 4.5 and 4.547
[7]; SPS4 deletion mutant
  Fold Change: 0.5658
[7]; SSK2 deletion mutant
  Fold Change: 1.579
[7]; SUR4 deletion mutant
  Fold Change: 2.535
[7]; SVL3 deletion mutant
  Fold Change: 0.3847
[7]; SWI6 deletion mutant
  Fold Change: 1.902
[7]; TOP1 deletion mutant
  Fold Change: 1.759
[7]; TRP2 deletion mutant
  Fold Change: 1.685
[7]; TSR2 deletion mutant
  Fold Change: 1.94
[7]; TYE7 deletion mutant
  Fold Change: 0.4859
[7]; UBC4 deletion mutant
  Fold Change: 1.541
[7]; UBP14 deletion mutant
  Fold Change: 1.534
[7]; UPF3 deletion mutant
  Fold Change: 1.61
[7]; VPS38 deletion mutant
  Fold Change: 1.666
[7]; YBR090C deletion mutant
  Fold Change: 0.5882
[7]; YDL118W deletion mutant
  Fold Change: 1.522
[7]; YDL172C deletion mutant
  Fold Change: 1.636
[7]; YGR237C deletion mutant
  Fold Change: 0.5496
[7]; YHB1 deletion mutant
  Fold Change: 0.5611
[7]; YIH1 deletion mutant
  Fold Change: 1.762
[7]; YIL141W deletion mutant
  Fold Change: 1.524
[7]; YIR044C deletion mutant
  Fold Change: 0.5723
[7]; YLR194C deletion mutant
  Fold Change: 0.5909
[7]; YLR279W deletion mutant
  Fold Change: 0.5779
[7]; YLR434C deletion mutant
  Fold Change: 1.5
[7]; YMR193C-A deletion mutant
  Fold Change: 1.867
[7]; YOL162W deletion mutant
  Fold Change: 0.5537
[7]; YPL205C deletion mutant
  Fold Change: 1.523
[7]; YPR130C deletion mutant
  Fold Change: 0.5263
[7]; YPS7 deletion mutant
  Fold Change: 1.508
[7]; YPT7 deletion mutant
  Fold Change: 0.1584
[7]; YPT7 deletion mutant, listed as EMIM-CI
  Fold Change: 0.1584
[7]; YSP2 deletion mutant
  Fold Change: 1.618
[7]; ZDS1 deletion mutant
  Fold Change: 0.6026
Y133 ptk2Δ [2]
  tolerance conferred by deletion of PTK2 in Y133: significantly greater tolerance

## poacic acid
S. cerevisiae
  growth versus solvent control: 70-80%
